{"source": "patent US4248870A", "about": "“Maytansinoids and use” (Takeda Chemical Industries, Ltd., priority 1979, dated 1981)", "key": {"Tetrahymena pyriformis W": {"tested_on": "Tetrahymena pyriformis W", "experiment": "Antiprotozoal activity, growth inhibition by serial dilution method", "assay_type": "cell-based", "settings": "28° C., 44 to 48 hours, pH 7.0, serial dilution method", "procedure": "Antiprotozoal activity of compound (I) was assayed with Tetrahymena pyriformis W as the test organism and a medium composed of 20 g tryptose-peptone (Difco Co.), 1 g yeast extract, 2 glucose, 1000 ml distilled water, 10 ml 1 M phosphate buffer (pH 7.0) as the assay medium. The microorganism was incubated at 28° C. for 44 to 48 hours and the growth inhibitory activity of compound (I) was assayed by the serial dilution method."}, "leukemia P-388": {"tested_on": "leukemia P-388", "experiment": "Therapeutic test in mice, leukemia P-388 transplanted intraperitoneally (life span prolongation)", "assay_type": "in vivo", "settings": "intraperitoneally once daily for 9 consecutive days", "procedure": "(§1) Therapeutic tests were carried out in mice according to NCI-protocols 1,200 and 1,300, Cancer Chemother, Reports, Part 3, 1972, Vol. 3, No. 2, in which leukemia P-388 and melanoma B-16 tumor cells had been intraperitoneally transplanted, compound (I) being administered intraperitoneally once daily for 9 consecutive days."}, "melanoma B-16": {"tested_on": "melanoma B-16", "experiment": "Therapeutic test in mice, melanoma B-16 transplanted intraperitoneally (life span prolongation)", "assay_type": "in vivo", "settings": "intraperitoneally once daily for 9 consecutive days", "procedure": "as §1"}}, "data": [{"smiles": "COc1cc2cc(c1Cl)N(C)C(=O)CC(OC(=O)c1cccs1)C1(C)OC1C(C)C1CC(O)(NC(=O)O1)C(OC)C=CC=C(C)C2", "note": "(centres unmarked) [Maytansinol 3-(2-thiophene)carboxylate]", "values": [{"measurement": "MIC", "setting": "Tetrahymena pyriformis W", "result": "≥ 4", "unit": "µg/mL"}]}, {"smiles": "COc1cc2cc(c1Cl)N(C)C(=O)CC(OC(=O)C1CC1)C1(C)OC1C(C)C1CC(O)(NC(=O)O1)C(OC)C=CC=C(C)C2", "note": "(centres unmarked) [Maytansinol 3-cyclopropane carboxylate, Maytansinol 3-cyclopropanecarboxylate]", "values": [{"measurement": "MIC", "setting": "Tetrahymena pyriformis W", "result": 4, "unit": "µg/mL"}]}, {"smiles": "COc1cc2cc(c1Cl)N(C)C(=O)CC(OC(=O)Cc1ccccc1)C1(C)OC1C(C)C1CC(O)(NC(=O)O1)C(OC)C=CC=C(C)C2", "note": "(centres unmarked) [Maytansinol 3-phenylacetate]", "values": [{"measurement": "Antitumor activities P-388 (T/C %)", "setting": "leukemia P-388; 12.5 μg/kg", "result": 164, "unit": "%"}, {"measurement": "Antitumor activities P-388 (T/C %)", "setting": "leukemia P-388; 25 μg/kg", "result": 185, "unit": "%"}, {"measurement": "Antitumor activities B-16 (T/C %)", "setting": "melanoma B-16; 12.5 μg/kg", "result": 207, "unit": "%"}, {"measurement": "Antitumor activities B-16 (T/C %)", "setting": "melanoma B-16; 25 μg/kg", "result": 230, "unit": "%"}, {"measurement": "MIC", "setting": "Tetrahymena pyriformis W", "result": "< 2", "unit": "µg/mL"}]}, {"smiles": "COc1cc2cc(c1Cl)N(C)C(=O)CC(OC(=O)c1ccccn1)C1(C)OC1C(C)C1CC(O)(NC(=O)O1)C(OC)C=CC=C(C)C2", "note": "(stereo not drawn) [Maytansinol 3-α-picolinate, Maytansinol 3-picolinate]", "values": [{"measurement": "Antitumor activities P-388 (T/C %)", "setting": "leukemia P-388; 50 μg/kg", "result": 193, "unit": "%"}, {"measurement": "Antitumor activities P-388 (T/C %)", "setting": "leukemia P-388; 100 μg/kg", "result": 185, "unit": "%"}, {"measurement": "Antitumor activities B-16 (T/C %)", "setting": "melanoma B-16; 100 μg/kg", "result": 176, "unit": "%"}, {"measurement": "Antitumor activities B-16 (T/C %)", "setting": "melanoma B-16; 200 μg/kg", "result": 173, "unit": "%"}, {"measurement": "MIC", "setting": "Tetrahymena pyriformis W", "result": "≥ 4", "unit": "µg/mL"}]}, {"smiles": "COc1cc2cc(c1Cl)N(C)C(=O)CC(OC(=O)c1ccccc1)C1(C)OC1C(C)C1CC(O)(NC(=O)O1)C(OC)C=CC=C(C)C2", "note": "(centres unmarked) [Maytansinol 3-benzoate]", "values": [{"measurement": "MIC", "setting": "Tetrahymena pyriformis W", "result": 4, "unit": "µg/mL"}]}, {"smiles": "COc1cc2cc(c1Cl)N(C)C(=O)CC(OC(=O)CCc1ccccc1)C1(C)OC1C(C)C1CC(O)(NC(=O)O1)C(OC)C=CC=C(C)C2", "note": "(centres unmarked) [Maytansinol 3-(3-phenyl)propionate, Maytansinol 3-phenylpropionate]", "values": [{"measurement": "MIC", "setting": "Tetrahymena pyriformis W", "result": "2 to 4", "unit": "µg/mL"}]}, {"smiles": "COc1cc2cc(c1Cl)N(C)C(=O)CC(OC(=O)c1ccc(Cl)cc1)C1(C)OC1C(C)C1CC(O)(NC(=O)O1)C(OC)C=CC=C(C)C2", "note": "(centres unmarked) [Maytansinol 3-(p-chloro)benzoate, Maytansinol 3-p-chlorobenzoate]", "values": [{"measurement": "MIC", "setting": "Tetrahymena pyriformis W", "result": "≥ 4", "unit": "µg/mL"}]}, {"smiles": "COc1cc2cc(c1Cl)N(C)C(=O)CC(OC(=O)c1ccco1)C1(C)OC1C(C)C1CC(O)(NC(=O)O1)C(OC)C=CC=C(C)C2", "note": "(centres unmarked) [Maytansinol 3-(2-furane)carboxylate, Maytansinol 3-(2-furan)carboxylate]", "values": [{"measurement": "MIC", "setting": "Tetrahymena pyriformis W", "result": "≥ 4", "unit": "µg/mL"}]}, {"smiles": "COc1cc2cc(c1Cl)N(C)C(=O)CC(OC(=O)C1CCCCC1)C1(C)OC1C(C)C1CC(O)(NC(=O)O1)C(OC)C=CC=C(C)C2", "note": "(centres unmarked) [Maytansinol 3-cyclohexane carboxylate, Maytansinol 3-cyclohexanecarboxylate]", "values": [{"measurement": "Antitumor activities B-16 (T/C %)", "setting": "melanoma B-16; 25 μg/kg", "result": 193, "unit": "%"}, {"measurement": "Antitumor activities B-16 (T/C %)", "setting": "melanoma B-16; 50 μg/kg", "result": 188, "unit": "%"}, {"measurement": "Antitumor activities B-16 (T/C %)", "setting": "melanoma B-16; 100 μg/kg", "result": 193, "unit": "%"}, {"measurement": "MIC", "setting": "Tetrahymena pyriformis W", "result": "< 2", "unit": "µg/mL"}]}]}
